pEC50, pIC50, pKi: −log10 of the molar value.
Legend:
[1] = In vivo antagonist activity at Androgen receptor assessed as reduction in wax ester in golden hamster ear model; format: functional, Cricetinae; set-up: concentration or dose not given beside the values
[2] = target: T1, Androgen receptor (Homo sapiens, UniProt P10275); experiment: Antagonist activity at Androgen receptor in human MDA-kb2 cells; format: cell-based
T1 sequence (P10275 whole entry): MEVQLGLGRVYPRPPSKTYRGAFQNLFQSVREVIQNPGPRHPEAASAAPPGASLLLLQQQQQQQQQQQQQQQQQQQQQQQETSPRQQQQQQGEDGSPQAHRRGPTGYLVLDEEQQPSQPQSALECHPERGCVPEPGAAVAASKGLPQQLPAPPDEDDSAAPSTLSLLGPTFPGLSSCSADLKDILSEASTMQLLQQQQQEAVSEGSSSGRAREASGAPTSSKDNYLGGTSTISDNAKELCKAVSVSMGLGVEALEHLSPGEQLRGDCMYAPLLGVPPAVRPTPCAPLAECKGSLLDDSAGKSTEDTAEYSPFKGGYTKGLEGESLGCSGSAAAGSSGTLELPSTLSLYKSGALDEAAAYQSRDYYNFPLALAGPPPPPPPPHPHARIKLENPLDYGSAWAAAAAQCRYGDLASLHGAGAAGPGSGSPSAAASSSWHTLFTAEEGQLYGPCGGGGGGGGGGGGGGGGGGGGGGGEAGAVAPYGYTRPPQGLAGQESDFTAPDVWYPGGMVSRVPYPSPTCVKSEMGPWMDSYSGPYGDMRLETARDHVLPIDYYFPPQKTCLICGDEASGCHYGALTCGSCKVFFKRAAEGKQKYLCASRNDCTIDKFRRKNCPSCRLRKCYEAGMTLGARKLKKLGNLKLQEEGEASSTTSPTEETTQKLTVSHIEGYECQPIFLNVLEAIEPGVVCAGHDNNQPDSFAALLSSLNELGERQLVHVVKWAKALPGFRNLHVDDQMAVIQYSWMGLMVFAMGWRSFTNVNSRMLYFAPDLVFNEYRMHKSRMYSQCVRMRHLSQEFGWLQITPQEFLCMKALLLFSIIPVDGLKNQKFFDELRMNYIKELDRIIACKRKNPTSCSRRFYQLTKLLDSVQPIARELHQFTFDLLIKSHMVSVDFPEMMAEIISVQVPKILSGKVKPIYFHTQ

[3] = target: Androgen receptor (Mus musculus, UniProt P19091); experiment: Agonist activity at Androgen receptor (unknown origin) transfected in mouse C2C12 cells measured by luciferase reporter assay; format: cell-based
Chain of Androgen receptor (Mus musculus, UniProt P19091) (P19091 whole entry): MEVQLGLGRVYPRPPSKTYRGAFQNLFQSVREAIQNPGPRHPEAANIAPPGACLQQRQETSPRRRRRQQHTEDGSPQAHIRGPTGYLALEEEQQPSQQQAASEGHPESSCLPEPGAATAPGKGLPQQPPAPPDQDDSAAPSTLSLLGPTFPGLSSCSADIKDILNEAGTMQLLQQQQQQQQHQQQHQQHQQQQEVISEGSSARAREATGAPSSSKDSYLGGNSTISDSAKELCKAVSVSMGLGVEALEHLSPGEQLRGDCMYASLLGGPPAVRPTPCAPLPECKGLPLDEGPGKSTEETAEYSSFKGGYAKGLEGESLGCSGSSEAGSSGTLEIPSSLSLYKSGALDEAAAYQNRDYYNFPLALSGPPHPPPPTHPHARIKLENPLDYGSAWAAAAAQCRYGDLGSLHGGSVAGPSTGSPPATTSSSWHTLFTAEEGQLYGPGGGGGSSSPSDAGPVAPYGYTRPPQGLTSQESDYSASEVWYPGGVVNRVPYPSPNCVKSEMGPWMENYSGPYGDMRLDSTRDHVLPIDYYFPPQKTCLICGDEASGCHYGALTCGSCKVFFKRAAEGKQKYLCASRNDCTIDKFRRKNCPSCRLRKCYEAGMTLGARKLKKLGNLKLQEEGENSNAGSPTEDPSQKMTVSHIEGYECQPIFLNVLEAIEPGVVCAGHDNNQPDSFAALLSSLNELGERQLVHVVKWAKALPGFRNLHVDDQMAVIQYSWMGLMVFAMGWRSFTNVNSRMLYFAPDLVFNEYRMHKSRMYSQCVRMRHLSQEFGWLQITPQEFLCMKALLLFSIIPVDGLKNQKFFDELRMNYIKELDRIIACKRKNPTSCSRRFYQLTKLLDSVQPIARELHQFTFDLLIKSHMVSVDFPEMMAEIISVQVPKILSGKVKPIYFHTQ

[4] = target: T2, Androgen receptor (Homo sapiens) (UniProt P10275); experiment: Induction of degradation of Androgen receptor in human LNCaP cells; format: cell-based
T2 sequence (whole entry): T1 sequence (P10275 whole entry)

[5] = target: T1, Androgen receptor; experiment: Binding affinity to human Androgen receptor
[6] = target: T1, Androgen receptor; experiment: Agonist activity to human Androgen receptor in African green monkey COS-7 cells measured by luciferase reporter assay; format: cell-based
[7] = target: T2, Androgen receptor (Homo sapiens); experiment: Agonist activity at androgen receptor (unknown origin) at 1 uM relative to control; details: filed as agonist
[8] = target: T1, Androgen receptor; experiment: Antagonist activity at Androgen receptor in human MDA-MB-453 cells measured by SEAP reporter gene assay; format: cell-based
[9] = target: T1, Androgen receptor; experiment: Displacement of [3H]DHT from Androgen receptor expressed in human MDA-MB-453 cells; format: cell-based
[10] = target: T1, Androgen receptor; experiment: Antagonist activity at Androgen receptor in human LNCaP cells measured by SEAP reporter gene assay; format: cell-based
[11] = system: LNCaP; experiment: Antiproliferative activity against human LNCaP cells; format: functional, cell-based
[12] = system: SC-3; experiment: Antiproliferative activity against mouse SC-3 cells; format: functional, cell-based
[13] = system: Rattus norvegicus; experiment: Anti-androgenic activity in testosterone-treated castrated rat assessed as reduction in prostate weight at 2 mg administered orally per day for 5 days; format: functional; set-up: Activity: scale not given: the % may be the effect or the level left; details: route po, time 5 day; for Activity: at 2 mg
[14] = target: T1, Androgen receptor; experiment: Binding affinity to Androgen receptor (unknown origin); details: read-out: IC50
[15] = target: T1, Androgen receptor; experiment: Partial agonist activity at human Androgen receptor
[16] = target: T1, Androgen receptor; experiment: Agonist activity at human Androgen receptor
[17] = system: Rattus norvegicus; experiment: Anti-androgenic activity in male Wistar rat assessed as decrease in ventral prostate weight at 10 mg/kg, po administered for 15 days; format: functional; set-up: Activity: scale not given: the % may be the effect or the level left; details: time 15 day
[18] = target: T1, Androgen receptor; experiment: Displacement of [3H]methyltrienolone from Androgen receptor expressed in human MDA-MB-453 cells; format: cell-based
[19] = system: Androgen receptor (Homo sapiens), P10275 [UNDEFINED MUTATION]; experiment: Induction of degradation of Androgen receptor splice variant 3 (unknown origin) at 7.5 uM
[20] = target: T2, Androgen receptor (Homo sapiens); experiment: Induction of degradation of Androgen receptor (unknown origin) at 7.5 uM
[21] = target: GABA-A receptor; anion channel; experiment: Binding affinity to GABA A receptor (unknown origin); format: protein-complex assay, Homo sapiens
[22] = Oral bioavailability in mouse; format: ADME, organism-based; details: in vivo
[23] = target: T3, Protein cereblon/Androgen receptor/Cullin-4A (Homo sapiens, UniProt P10275+Q96SW2+Q13619); experiment: Protac activity at CRBN/Cullin 4A/Androgen receptor in human LNCaP cells assessed as Androgen receptor degradation; format: cell-based
T3 sequence (Q96SW2 whole entry, one chain of several): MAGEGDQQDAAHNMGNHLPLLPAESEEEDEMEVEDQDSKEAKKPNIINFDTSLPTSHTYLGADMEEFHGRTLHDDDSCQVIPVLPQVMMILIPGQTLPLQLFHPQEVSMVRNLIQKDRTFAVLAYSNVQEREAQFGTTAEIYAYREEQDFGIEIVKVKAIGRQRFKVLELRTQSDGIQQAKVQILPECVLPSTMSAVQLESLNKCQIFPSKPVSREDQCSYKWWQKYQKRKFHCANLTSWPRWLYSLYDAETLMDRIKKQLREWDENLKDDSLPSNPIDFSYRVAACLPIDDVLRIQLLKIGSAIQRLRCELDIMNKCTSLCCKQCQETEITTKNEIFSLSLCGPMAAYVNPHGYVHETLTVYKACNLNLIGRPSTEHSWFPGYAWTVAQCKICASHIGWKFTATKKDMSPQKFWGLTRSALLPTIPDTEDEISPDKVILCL
T3 sequence (Q13619 whole entry, one chain of several): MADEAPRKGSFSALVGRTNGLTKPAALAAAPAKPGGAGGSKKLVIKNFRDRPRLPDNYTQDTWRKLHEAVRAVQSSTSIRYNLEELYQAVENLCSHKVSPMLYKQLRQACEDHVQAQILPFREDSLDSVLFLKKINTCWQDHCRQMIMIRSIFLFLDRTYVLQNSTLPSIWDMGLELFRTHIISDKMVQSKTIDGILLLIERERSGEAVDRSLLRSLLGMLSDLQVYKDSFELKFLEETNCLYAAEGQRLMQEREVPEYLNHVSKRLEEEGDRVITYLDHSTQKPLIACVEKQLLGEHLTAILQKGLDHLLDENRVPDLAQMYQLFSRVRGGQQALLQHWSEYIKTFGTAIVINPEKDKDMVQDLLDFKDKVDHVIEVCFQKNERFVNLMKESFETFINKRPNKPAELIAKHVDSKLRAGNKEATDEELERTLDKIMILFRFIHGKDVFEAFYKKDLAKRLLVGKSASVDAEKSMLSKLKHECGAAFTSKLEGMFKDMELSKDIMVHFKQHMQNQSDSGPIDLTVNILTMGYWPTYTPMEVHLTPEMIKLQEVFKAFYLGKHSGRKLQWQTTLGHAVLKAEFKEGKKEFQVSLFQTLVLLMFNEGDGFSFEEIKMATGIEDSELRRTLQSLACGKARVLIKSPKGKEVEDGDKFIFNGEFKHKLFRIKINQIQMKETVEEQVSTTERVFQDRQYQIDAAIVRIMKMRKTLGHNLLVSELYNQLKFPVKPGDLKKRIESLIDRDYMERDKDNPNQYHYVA

[24] = target: T3, Protein cereblon/Androgen receptor/Cullin-4A; experiment: Protac activity at CRBN/Cullin 4A/Androgen receptor in human VCaP cells assessed as Androgen receptor degradation; format: cell-based
[25] = Antiproliferative activity against refractory human prostate cancer cells; format: functional, cell-based; details: Prostate tumor cell line
[26] = target: T1, Androgen receptor; experiment: Agonist activity at human Androgen receptor expressed in human MDA-MB-453 cells cotransfected with MMTV-Luc assessed as transactivation modulation of AR measured by luciferase reporter assay; format: cell-based
[27] = target: T2, Androgen receptor (Homo sapiens); experiment: Agonist activity at human Androgen receptor expressed in human MDA-MB-453 cells cotransfected with MMTV-Luc assessed as transactivation modulation of AR measured by luciferase reporter assay relative to control; format: cell-based; details: filed as agonist
[28] = target: Androgen receptor (Homo sapiens, UniProt P10275, T878A); experiment: Binding affinity to bicalutamide-resistant Androgen receptor T878A mutant (unknown origin)
Chain of Androgen receptor (Homo sapiens, UniProt P10275, T878A) (P10275 whole entry T878A): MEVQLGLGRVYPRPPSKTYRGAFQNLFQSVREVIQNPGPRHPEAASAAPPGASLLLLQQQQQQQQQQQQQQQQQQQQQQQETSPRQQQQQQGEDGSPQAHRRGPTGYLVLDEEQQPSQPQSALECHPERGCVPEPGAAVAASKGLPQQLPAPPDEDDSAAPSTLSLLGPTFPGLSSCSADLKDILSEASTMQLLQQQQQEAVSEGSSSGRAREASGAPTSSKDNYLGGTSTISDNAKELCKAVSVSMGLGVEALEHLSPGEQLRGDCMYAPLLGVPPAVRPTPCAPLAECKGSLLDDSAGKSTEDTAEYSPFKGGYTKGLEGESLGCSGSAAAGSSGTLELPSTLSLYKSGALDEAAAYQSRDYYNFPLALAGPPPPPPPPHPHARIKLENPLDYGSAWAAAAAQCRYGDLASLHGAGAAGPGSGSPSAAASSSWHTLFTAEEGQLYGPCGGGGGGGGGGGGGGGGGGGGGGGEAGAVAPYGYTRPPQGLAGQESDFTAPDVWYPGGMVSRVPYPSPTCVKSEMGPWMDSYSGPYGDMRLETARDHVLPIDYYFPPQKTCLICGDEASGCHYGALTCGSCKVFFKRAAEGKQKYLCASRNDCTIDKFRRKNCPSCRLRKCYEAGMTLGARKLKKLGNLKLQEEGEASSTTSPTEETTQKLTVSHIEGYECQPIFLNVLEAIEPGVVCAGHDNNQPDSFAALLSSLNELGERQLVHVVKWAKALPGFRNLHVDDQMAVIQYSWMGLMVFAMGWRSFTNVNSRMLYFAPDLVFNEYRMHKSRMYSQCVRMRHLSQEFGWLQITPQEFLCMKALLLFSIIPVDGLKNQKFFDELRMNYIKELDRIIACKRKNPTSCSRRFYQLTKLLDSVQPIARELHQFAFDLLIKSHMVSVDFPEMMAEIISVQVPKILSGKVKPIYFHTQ

N#Cc1ccc(-c2ccccc2O)cc1C(F)(F)F
Activity [1]: 86% | pIC50 [2]: 9.70

Cc1c(N2C(=O)[C@@H]3[C@H](O)CCN3C2=O)ccc(C#N)c1Cl
pEC50 [3]: 8.64

CC1(C)C(=O)N(c2ccc(C#N)c(C(F)(F)F)c2)C(=S)N1CCCC(=O)NCCOCCOC(=O)CC12CC3CC(CC(C3)C1)C2
Activity [4]: > 50%

C[C@H]1[C@@H](O)CCN1c1ccc(C#N)c2ccccc12
pIC50 [5]: 8.62 | pEC50 [6]: 9.49

CC1(C)CN(CCC#N)C(=O)[C@@H]1Oc1ccc(C#N)c(C(F)(F)F)c1
Activity [7]: 89%

Cc1ccccc1Oc1ccc(C#N)c(Cl)c1
Activity [1]: >87%

N#Cc1ccc(N2C(=O)[C@H]3[C@@H]4C[C@@H](CN4C(=O)Oc4ccc(F)cc4)N3C2=O)cc1C(F)(F)F
pIC50 [8]: 6.46 | pKi [9]: 7.74 | pIC50 [10]: 5.41

O=c1[nH]nc(Cc2c(Cl)cccc2Cl)c2ccccc12
pIC50 [11]: 6.25 | pIC50 [12]: 6.74

Fc1ccc(Cn2c(CC(F)(F)F)nc3cc(Cl)c(Cl)cc32)cc1
ID50 [13]: 0.13 mg/day | Activity [13]: 84%

CC(O)(C[S+]([O-])c1ccc(Cl)c(Cl)c1)c1cc2cc(Cl)c(C(F)(F)F)cc2[nH]1 (stereo not drawn)
pIC50 [14]: 7.00

N#Cc1ccc(N2CCC[C@@H]2[C@@H](O)C(F)(F)F)cc1C(F)(F)F [VK5211]
pKi [5]: 9.00

C[C@@]1(c2ccc(O)cc2)NC(=O)N(c2ccc(C#N)c(C(F)(F)F)c2)C1=O
pIC50 [15]: 9.05

CC(O)(c1nc2cc(Cl)c(Cl)cc2[nH]1)C(F)(F)F (stereo not drawn)
ID50 [13]: 0.32 mg/day | Activity [13]: 96%

CO[C@@H]1C(c2ccc(C#N)c(Cl)c2C)=NN2CC[C@H](O)[C@@H]12
pEC50 [3]: 9.30

N#CCC(O)(c1nc2cc(Cl)c(Cl)cc2[nH]1)C(F)(F)F (stereo not drawn)
pIC50 [14]: 8.70

CC(C)(C)OC(=O)c1cccc2oc(=O)c3c(ccc4[nH]c(=O)cc(C(F)(F)F)c43)c12
pKi [5]: 8.06 | pEC50 [16]: 8.96

C[C@@H]1CN(c2ccc(C#N)c(C(F)(F)F)c2)[C@@H](C)CN1C(=O)Nc1ccc(C(F)(F)F)nc1
ED50 ([17]; Rattus norvegicus, Wistar, 360 h): 2.2 mg/kg/day | Activity ([17]; dose 10 mg/kg): 67%

CN1C(=O)C(F)=C[C@]2(C)[C@H]3CC[C@]4(C)[C@@H](C(=O)NCc5nc6cccnc6[nH]5)CC[C@H]4[C@@H]3CC[C@@H]12 [MK-0773]
pIC50 [18]: 8.18

Cc1c(C(C)(O)C(F)(F)F)[nH]c2cc(C(F)(F)F)c(C#N)cc12 (stereo not drawn)
ID50 [13]: 0.13 mg/day | Activity [13]: 80%

CC(O)(CS(=O)(=O)c1ccc(F)cc1)C(=O)Nc1ccc(C#N)c(C(F)(F)F)c1 (stereo not drawn) [BICALUTAMIDE]
pIC50 [11]: 6.80

CC(C)N1C[C@@]2(C)O[C@](C)(C1)[C@H]1C(=O)N(c3ccc(C#N)c(C(F)(F)F)c3)C(=O)[C@H]12
pIC50 [8]: 7.49 | pKi [9]: 7.85 | pIC50 [10]: 6.90

CC1(C)CN(Cc2ccccc2)C(=O)[C@@H]1Oc1ccc(C#N)c(C(F)(F)F)c1
Activity [1]: 78%

C[C@@]12O[C@@](C)(C[C@H]1O)[C@@H]1C(=O)N(c3ccc(C#N)c(I)c3)C(=O)[C@@H]12
pIC50 [8]: 7.72 | pKi [9]: 8.62

COc1ccc(/C=C/C(=O)/C=C(O)/C=C/c2ccc(OC)c(OC)c2)cc1OC
Activity [19]: > 80% | Activity [20]: > 80%

CC1(C)C(=O)N(c2ccc(C#N)c(Cl)c2)C(=S)N1CCCS(N)(=O)=O
pIC50 [11]: 6.39

Cc1c(N2CC[C@](C)(O)[C@@H]2C)ccc(C#N)c1Cl
pIC50 [5]: 9.00 | pEC50 [6]: 9.54

N#Cc1ccc(O[C@@H]2CCCC[C@H]2C#N)cc1C(F)(F)F
Activity [1]: 64%

C[C@@H]1CC[C@H]([C@@H](O)C(F)(F)F)N1c1ccc2[nH]c(=O)cc(C(F)(F)F)c2c1 [LGD-2941]
pKi [5]: 8.19

CC(c1ccccc1)N(C)c1ccc(C#N)c(C(F)(F)F)n1 (stereo not drawn)
pIC50 [5]: 7.70 | Activity [1]: 83% | pIC50 [2]: 7.35

CNC(=O)c1ccc(N2C(=S)N(c3ccc(C#N)c(C(F)(F)F)c3)C(=O)C2(C)C)cc1F [ENZALUTAMIDE]
pIC50 [11]: 7.44 | pIC50 [21]: 5.52

C[C@]12COC(=O)C[C@@H]1CC[C@@H]1[C@@H]2CC[C@@]2(C)[C@H]1CC[C@]2(C)O [OXANDROLONE]
pKi [5]: 7.21

Cc1ccccc1Sc1ccc(C#N)cc1Cl
Activity [1]: >80%

CNC(=O)c1ccc(N2C(=S)N(c3cnc(C#N)c(C(F)(F)F)c3)C(=O)C23CCC3)cc1F [APALUTAMIDE]
pIC50 [21]: 5.52

CC1(C)[C@H](NC(=O)c2ccc(N3CCN(CC4CCN(c5ccc6c(c5)C(=O)N(C5CCC(=O)NC5=O)C6=O)CC4)CC3)cc2)C(C)(C)[C@H]1Oc1ccc(C#N)c(Cl)c1 (stereo partly drawn)
bioavailability [22]: 67% | DC50 [23]: 8.3 nM | DC50 [24]: 0.28 nM

CCCCc1ccc(OC(=O)N2C[C@@H]3C[C@H]2[C@@H]2C(=O)N(c4ccc([N+](=O)[O-])c5ccccc45)C(=O)N32)cc1
pIC50 [8]: 7.22 | pKi [9]: 7.14 | pIC50 [10]: 5.32

N#Cc1ccc(-n2c(=O)n(Cc3ccccc3)c3ccccc32)cc1C(F)(F)F
pIC50 [25]: 6.77

CC1(C)CN(CCC#N)C(=O)[C@@H]1Oc1ccc(C#N)c(Cl)c1
Activity [7]: 89%

N#Cc1ccc([C@H]2CCCC[C@H]2O)cc1C(F)(F)F
pIC50 [5]: 7.59 | Activity [1]: 85% | pIC50 [2]: 7.05

CN1C(=O)C(F)=C[C@]2(C)[C@H]3CC[C@]4(C)[C@@H](O)/C(=C/c5cncnc5)C[C@H]4[C@@H]3CC[C@@H]12
pEC50 [26]: 7.77 | Activity [27]: 141% | pIC50 [18]: 7.23

N#Cc1ccc(N2C(=O)N[C@@](CO)(c3ccccc3)C2=O)cc1C(F)(F)F
pIC50 [15]: 7.89

COc1cc(N2C(=O)C(C)(C)c3cc(-c4cccnc4OC)ccc32)ccc1C#N
pIC50 [25]: 7.10

CN(c1ccc(C#N)c(Cl)c1)[C@H]1CC[C@H](NC(=O)c2ccc(N3CCN(C4CN(c5ccc6c(c5)C(=O)N(C5CCC(=O)NC5=O)C6=O)C4)CC3)cc2)CC1 (stereo partly drawn)
bioavailability [22]: 51% | DC50 [23]: < 0.1 nM | DC50 [24]: < 0.1 nM

CC(O)(COC(=O)c1ccccc1C(F)(F)F)c1cc2cc([N+](=O)[O-])c(C(F)(F)F)cc2[nH]1 (stereo not drawn)
pIC50 [14]: 6.85

Cn1cc(N(Cc2ccccc2)c2ccc([N+](=O)[O-])cc2)cc1C(=O)N1CCCC1
pIC50 [12]: 6.36 | pKi [28]: 8.22
